The results in this text go back to patent US12036228B2, “Treatment of seizure disorders” (Shackelford Pharma Inc., priority 2022, dated 2024).

The structures appear in SMILES notation.

Common to all, as to format: in vivo
Data set [1] deals with seizures in human patient. Kind of data set: Example 8 pediatric patient with Lennox-Gastaut. The conditions noted are these: THC 8 mg BID (16 mg TDD) orally in combination with Epidiolex (CBD) 150 mg BID. Here is the method: The other pediatric patient was a patient, diagnosed with Lennox-Gastout in 2008, suffered from multiple seizure types and went through corpus callosotomy in January 2017 after failure of vagus nerve stimulation (VNS). […] The patient was first evaluated for cannabinoid treatment on Aug. 3, 2017, and was prescribed CBD with 0.3% THC 10 mg BID (Charlotte's Web). […] After discharge from the hospital, the patient's GTCs worsened and were no longer responsive to felbamate. […] This patient was 35.45 kg, so the CBD daily dose was 3.3 mg/kg (well below the therapeutic dosages for Epidiolex). However patient was still having frequent tonic, myoclonic, and GTC seizures per day. […] When the dose was 300 mg Epidiolex daily, the patient was 40.5 kg, so the CBD daily dose was 7.4 mg/kg (below the therapeutic dosages for Epidiolex for Lennox Gastaut Syndrome).

The test system of data set [2] is GTC seizures in human patient. The experiment in a line: Example 5 human patient, GTC seizures caused by cerebral angioma. The text has this:
A patient first started having GTC seizures in 2007 which were caused by a cerebral angioma. […] The freedom from seizures allowed them to stop taking Lamictal, and the resolution of the medication side effects allowed them to return to work.

In data set [3] the test system is GTC seizures in human patient. Kind of data set: Example 4 human patient, idiopathic GTC seizures. The text has this: A person's first evaluation for cannabinboid therapy was on Feb. 16, 2010. […] Initially in 2010, the patient was smoking cannabis in the day and taking a THC cannabis extract at night orally.
The subject of data set [4] is GTC seizures in human patient. The experiment in a line: Example 2 human patient, Dravet syndrome. How it is done: A patient first started having seizures and was subsequently diagnosed with Dravet syndrome. Initially, they were having clusters of 2 GTC seizures a day for 2 days occurring about every 2 weeks. Keppra was ineffective as were other combinations of anti-epileptic drugs. Several different combinations were tried and by the time they were first seen for evaluation for cannabinoid treatment on Aug. 7, 2014, they were taking Depakote 125 mg BID, Clonazepam 0.5 mg TID, and Versed/Diastat as needed for rescue but was still having clusters of GTC seizures every 2 weeks. The patient had started a CBD product on Jul. 3, 2014 (product analysis: 11.2 mg CBD/gm with 0.38 mg THC/gm at a dose of 0.7 mL TID (unknown concentration per mL), but seizures still were occurring irregularly—primarily GTC occurring in clusters of 1-2 per day every two weeks, rare atonic, and occasional eye-flutters.

The test system of data set [5] is seizures in human patient. The experiment in a line: Example 3 human patient, GTC and complex partial seizures. An excerpt:
A patient first started having GTC and complex partial (CP) seizures. […] The patient was referred for evaluation for initiation of cannabinoid/THC treatment in March 2014.

The subject of data set [6] is GTC seizures in human patient. The experiment in a line: Example 7 human patient, intractable GTC seizures. The conditions noted are these: 10 mg THC with 10 mg CBD orally daily at bedtime, with Trileptal and clonazepam. The text has this:
A patient was first diagnosed with intractable GTC seizures without status epilepticus in 2001.
The patient first presented for cannabinoid treatment on May 24, 2013. They were then a PhD student in economics. The patient's medical history is significant for having a car accident with a concussion and “scarring”. They developed GTC seizures occurring 3 times per month. […] In 2008, they started using recreational cannabis occasionally, but not regularly.

The mark [7] stands for this setting: smoking cannabis during the day and 12.5 mg of THC orally at bedtime.

Regarding `CCCCCc1cc(O)c2c(c1)OC(C)(C)[C@@H]1CCC(C)=C[C@@H]21` [THC, Delta-9-tetrahydrocannabinol], the effect on seizures entry in data set [1] is “further reduction in seizure frequency and duration”. Moreover, the seizure status entry is “still seizure-free” in data set [2] (only orally administered THC-infused confections and drinks); “continued seizure freedom” in data set [2] (orally administered THC reduced from 150 milligrams to 70 mg at bedtime); “had no seizures” in data set [3] (setting [7]); “remained seizure free” in data set [5] (20 milligrams THC cannabis extract liquid orally in the morning and 5 mg THC content pill in the evening); “seizure free” in data set [5] (inhaled 16 mg cannabis wax in the morning and oral 20 milligrams THC cannabis extract liquid at night). The “seizures after resuming regimen” value in data set [3] (cannabis smoking during the day and THC cannabis extract orally at night) was “the seizures stopped”. In addition, the seizure control entry in data set [3] (inhaled and orally administered THC cannabis products, no anti-epileptic drugs) is reported as “well controlled”. In data set [3] (setting [7]), this molecule yielded a seizure-free period of 4 years. The cognitive function result in data set [4] (20 mg CBD+20 mg THC TID regimen) was “significantly better”. Moreover, the seizure-free duration in data set [4] (Depakote+Onfi+stiripentol+5 mg THC HS) is 15 months. Also, in data set [4] (THC 5 mg HS, CBD removed), the “seizures after THC added back” value was “improvement in the number and severity of all seizure types”. The “behavioral effect when used as rescue medication” value in data set [4] (THC applied to the oral mucosa) is given as “no behavioral compromise”. The “termination of seizures as rescue medication” value in data set [4] (THC applied to the oral mucosa, 6 non-convulsive seizures) was “rapidly terminated”. Besides, the “seizures when THC was dropped from the regimen” value in data set [4] (patient not receiving THC, Apr. 25 to Dec. 3, 2017) was “frequency and severity of all seizure types increased”. Moreover, in data set [4] (two drops THC to gums), the “effect as rescue medication” value is “rapid effect”. Besides, the seizures entry in data set [6] is “no seizures since restarting cannabinoids”.
